The text below walks through data of paper PMC7667029, “A Targeted Computational Screen of the SWEETLEAD Database Reveals FDA-Approved Compounds with Anti-Dengue Viral Activity” (mBio, 2020).

One series concerns DENV2. Briefly: Antiviral activity in DENV2-infected Huh7 cells, infectious virus in supernatant by plaque assay. It counts as cell-based, dengue virus. On the procedure: FIG 2 Pyrimethamine inhibits dengue virus and NS2B/3 proteinase cleavage like ARDP0006. (A) Chemical structures and (B) ROCS overlay of ARDP0006 and pyrimethamine. […] Infectious virus in cell supernatant was quantified by plaque assay at 24 hpi (left y axis, black or red). Cell viability was measured at the same pyrimethamine doses 24 h posttreatment by WST-1 assay (right y axis, gray). Viral titer and cell viability were normalized to DMSO-treated samples. (D) Splenic titers of DENV2-infected AGB6 mice at 4 days postinfection. Mice were infected with 1 × 10^6 PFU DENV2 and treated twice daily with 20 mg/kg pyrimethamine (n = 9) or a vehicle control (n = 10). Data were analyzed by two-tailed unpaired t test. (E) Cleavage kinetics of NS2B/3/4A in the presence of 100 μM pyrimethamine. NS2B/3/4A protein was expressed in vitro and radiolabeled with [^35S]methionine, followed by treatment with 100 μM pyrimethamine or DMSO. Reaction samples were obtained over a 45-min time course, separated by SDS-PAGE, and the fraction of uncleaved proteinase precursor remaining was determined as described previously ([23]). Data from three replicates were fit using single-phase exponential decay functions, and P value was determined by comparing the rate constant, K, of the models using the extra sum-of-squares F test.
Dengue plaque assays were carried out on BHK-21 cells in 24-well plates. Cells were infected with 10-fold serial dilutions of virus, which were allowed to adsorb for at least 1 h at 37°C, and overlaid with standard cell culture medium plus 0.37% (w/vol) sodium bicarbonate and 0.8% (w/vol) Aquacide II (Millipore Calbiochem). After 7 days of incubation at 37°C, 5% CO2, cells were fixed with 5% (final) formaldehyde and stained with crystal violet for plaque enumeration.
Between 4 × 10^4 and 1 × 10^5 Huh7 cells per well were seeded into 24-well plates 1 day prior to infection. Compounds were diluted to 100× final concentration in DMSO and then further diluted 1:100 into appropriate cell culture. Unless otherwise indicated, tested compounds were present for 1 h pretreatment and readministered for posttreatment following infection. […] Media and drugs were removed from cells for infection at a multiplicity of infection (MOI) of 0.1 or 0.5 in 200 μl cold medium per well. After 1 h at 37°C, virus inoculum was removed by aspiration and replaced with medium plus compound or control. After 24-h total infection, infectious virus was quantified by plaque assay. Antiviral IC50 dose-response curves were fitted in GraphPad Prism 8 using the “[inhibitor] versus response, variable slope” function with a constraint “bottom > 0.” IC90 values are defined as the dose at which “y = (span × 0.1) + bottom.”

The test system of series [1] is dengue virus. Also noted: method as in PMID 25823617. The conditions noted are these: read-out: IC50, inhibition of viral growth in cell culture; cited from earlier work.
For another series, the target named is NS2B/3 proteinase. Further details: method as in PMID 30228122. The conditions noted are these: read-out: IC50, inhibition of NS2B/3 proteinase cleavage activity in solution; cited from earlier work.
For series [2] the following is noted: single dose, ref PubChem database, cited from earlier work.
A further series deals with dengue viral RNA. Put plainly: Intracellular viral RNA quantification by qRT-PCR in infected Huh7 cells. The note with it: added 4 h postinfection at IC90 dose (5.6 μM ST-148, 0.66 μM niclosamide). It counts as cell-based, dengue virus. The protocol: (§1) (A) Chemical structures and (B) ROCS overlay of ST-148 and niclosamide. […] Compound addition, viral growth, and cytotoxicity assays were performed as described in the legend to Fig. 2C. (D) Virucidal activity of compounds at the concentrations indicated was measured after 60-min incubation of drugs with virus-containing solutions at 37°C. Viral titer was quantified by plaque assay on BHK-21 cells. n = 3. Statistical significance was evaluated by one-way ANOVA with Sidak’s multiple-comparison test and indicated as follows: *, P < 0.05; **, P < 0.01; ****, P < 0.0001; ns, not significant. […] On the left, cells were pretreated for 2 h prior to infection, compounds were removed during a 1-h infection at an MOI of 0.5 PFU/cell and then readministered after removal of viral inoculum. On the right, cells were similarly infected and compounds were first introduced 4 h after starting the infection. […] (F) To test the effect of ST-148 and niclosamide on viral RNA replication, Huh7 cells were infected for 1 h at an MOI of 0.5 PFU/cell. […] Intracellular RNA was collected at the time points indicated and quantified by qRT-PCR. […] N = 4, two-way ANOVA with Dunnett’s multiple-comparison test. […] After 4 h of infection, 10 μM ST-148 or 1 μM niclosamide was added; extracellular virus was collected at 24 hpi and quantified by plaque assay.

The subject of the next series is Zika virus. Also noted: method as in PMID 27571349. The note with it: read-out: IC50, previously reported value for Zika virus; cited from earlier work.
Series [3] has as its system dengue virus. Put plainly: Virucidal activity assay, 60-min incubation of drug with virus, plaque assay on BHK-21 cells. It counts as cell-based. The protocol: as §1
Compounds were diluted to 100× in DMSO, then further diluted 1:100 into phosphate-buffered saline (PBS) containing dengue virus to a final volume of 200 μl and mixed. Aliquots were taken for plaque assays immediately after addition of compounds (time [T] = 0 min) or after incubation at 37°C for 60 min (T = 60 min).

Series [4] has as its system dengue virus. Briefly: Initial screening of hit compounds for anti-dengue activity in tissue culture cells (Table S1). Format: cell-based. The note with it: viral titer relative to vehicle, tissue culture cell lines (BHK-21 48 hpi, Fig. S1; Huh7, Fig. 2C, 3C, 4C). The protocol: For each query molecule, the top 500 compound hits obtained from the ROCS algorithm, as ranked by the Tanimoto combo score (see Data Set S1 in the supplemental material), were manually inspected for similar chemical and structural features. They were further prioritized by factors such as a lack of known side effects, commercial availability, and the intellectual property considerations that would be needed for worldwide, inexpensive use. Fourteen candidates were tested for their effects on dengue virus growth and toxicity in BHK-21 and Huh7 cells (see Table S1 and Fig. S1 in the supplemental material).
Supplementary file : TABLE S1 Summary of hits for lead compounds ARDP0006 and ST-148 screened for anti-dengue activity in tissue culture cells. Hit compounds were tested for anti-dengue activity and cell toxicity in tissue culture cell lines. Antiviral activity is summarized as follows: −, not antiviral, with titer greater than 50% of vehicle; +, weakly antiviral, with titer between 20 and 50% of vehicle; ++, moderately antiviral, with titer between 5 and 20% of vehicle; +++, highly antiviral, with titer less than 5% of vehicle. Toxicity at these doses is represented as follows: −, nontoxic, with cell viability greater than 80% of vehicle; +, mild toxicity, with cell viability between 60 and 80% of vehicle; +++, high toxicity, with cell viability less than 60% of vehicle. Data summarized here are depicted graphically in Fig. S1 and Fig. 2C, 3C, and [4]C. The Tanimoto combo score of each hit during initial ROCS screening is indicated; higher Tanimoto combo scores are indicative of increased chemical similarity. Download Table S1, PDF file, 0.04 MB.
Supplementary file : FIG S1 Initial screening of eliminated hit compounds for anti-dengue activity in tissue culture cells. BHK-21 cells were pretreated with the compounds at the indicated concentrations for 30 min, infected with dengue virus at an MOI of 0.1 PFU/cell for 1 h, and then posttreated with compound. At 48 hpi, cellular supernatant was collected and titered by plaque assay (purple). Cell viability in uninfected cells in the presence of compounds for 48 h was measured by WST assay (gray). Both viral titer and cell viability are normalized to their relative DMSO vehicle control, N = 2. Download FIG S1, PDF file, 0.06 MB.

Entries after “also recorded” stand apart in the source; their conditions may differ. Read-outs that look alike come from different tables or passages of the source.

Take `O=C1c2c(O)ccc([N+](=O)[O-])c2C(=O)c2c([N+](=O)[O-])ccc(O)c21` [ARDP0006]: the IC50 in the series with DENV2 (Dengue virus, DENV2, Huh-7, read-out: IC50 of viral inhibition (infectious extracellular virus)) is 590 nM; with dengue virus [1], 2700 nM; at NS2B/3 proteinase, 620000 nM.

For the compound `O=C(Nc1ccc([N+](=O)[O-])cc1Cl)c1cc(Cl)ccc1O` [Niclosamide, niclosamide], the values for the LD50 in series [2] (IP) and in series [2] (Oral) were 7.5 mg/kg and 1000 mg/kg, respectively. Further, the “Viral RNA abundance” value in the series on dengue viral RNA is “no difference in viral RNA abundance”. The IC50 with Zika virus was 280 nM; in the series with DENV2 (Dengue virus, Huh-7, DENV2-infected Huh7 cells, single infectious cycle, plaque assay at 24 hpi, read-out: IC50 of viral inhibition (infectious extracellular virus)), 280 nM. Moreover, the “Virucidal effect of the combination with ST-148” value in the series on dengue virus [3] (1 μM niclosamide added to 0.1 μM ST-148, 1 h at 37°C) is recorded as “significantly increased the virucidal effect of ST-148; also recorded: augment the virucidal activity of ST-148”. For the same compound, the “Virucidal activity (viral infectivity after coincubation)” value in the series with dengue virus [3] (niclosamide alone at a much higher concentration, 1 h at 37°C) is listed as “significantly, albeit slightly, virucidal”. Besides, in the series with DENV2 (10 μM ST-148 or 1 μM niclosamide added after 4 h of infection, extracellular virus at 24 hpi), the “Virion production at increased dose after entry” value is given as “effective during later, postentry stages; also recorded: inhibited virion production”. For the same compound, in the series on DENV2 (Dengue virus, Huh-7, DENV2-infected Huh7 cells, from dose-response curve fit, 24 hpi), it took 660 nM to reach the 90% level (IC90). Moreover, the “Viral titer on delayed addition of compound” value in the series on DENV2 (IC90 dose first added 4 h after infection, Huh7, 24 hpi) is “eliminated the observed reduction of viral titer”. In addition, in the series on dengue virus [4], the Antiviral entry is given as “+++ (highly antiviral, with titer less than 5% of vehicle)”.
